The values below come from patent publication US9365512B2, “Isoindoline derivatives, pharmaceutical compositions containing them, and their use in therapy” (AbbVie Deutschland GmbH & Co. KG, priority 2012, dated 2016).

Structures are written as SMILES.

The nature of data set [1]: Metabolic stability in human liver microsomes (microsomal clearance). In kind it is in vitro ADME. The settings on record: 0.5 μM test substance, 0.25 mg microsomal protein/ml, pH 7.4, 37° C., NADPH. As for the experimental part: The metabolic stability of a compound can be measured for example by incubating a solution of this compound with liver microsomes from particular species (for example rat, dog or human) and determining the half-life of the compound under these conditions (RS Obach, Curr Opin Drug Discov Devel. 2001, 4, 36-44). It is possible in this connection to conclude from an observed longer half-life that the metabolic stability of the compound is improved. The stability in the presence of human liver microsomes is of particular interest because it makes it possible to predict the metabolic degradation of the compound in the human liver. Compounds with increased metabolic stability (measured in the liver microsome test) are therefore probably also degraded more slowly in the liver. The slower metabolic degradation in the liver may lead to higher and/or longer-lasting concentrations (active levels) of the compound in the body, so that the elimination half-life of the compounds of the invention is increased. Increased and/or longer-lasting active levels may lead to a better activity of the compound in therapeutic treatment. […]
Metabolic stability was determined as follows:
0.5 μM test substance was preincubated together with human liver microsomes (0.25 mg of microsomal protein/ml) in 0.05 M potassium phosphate buffer of pH 7.4 in microtiter plates at 37° C. for 5 min. […] The samples were frozen until analyzed. The remaining concentration of undegraded test substance was determined by LC MSMS. The half-life (T½) was determined from the gradient of the signal of test substance/unit time plot, allowing to calculate the half-life of the test substance, assuming first order kinetics, from the decrease in the concentration of the compound with time. The microsomal clearance (mCl) was calculated from mCl=ln 2/T½/(content of microsomal protein in mg/ml)×1000 (modified from references: Di, The Society for Biomolecular Screening, 2003, 453-462; Obach, DMD, 1999 vol 27. N 11, 1350-1359).
In general terms: Liver microsomes are vesicles of endoplasmic reticulum, rich in cytochrome P450 enzymes.

Another data set concerns the target T1, human GlyT1c transporter (Homo sapiens, UniProt P48067).
T1 construct: expressed in transfected cells; host or cells: CHO cells (recombinant; membranes)
T1 sequence (P48067 1-706): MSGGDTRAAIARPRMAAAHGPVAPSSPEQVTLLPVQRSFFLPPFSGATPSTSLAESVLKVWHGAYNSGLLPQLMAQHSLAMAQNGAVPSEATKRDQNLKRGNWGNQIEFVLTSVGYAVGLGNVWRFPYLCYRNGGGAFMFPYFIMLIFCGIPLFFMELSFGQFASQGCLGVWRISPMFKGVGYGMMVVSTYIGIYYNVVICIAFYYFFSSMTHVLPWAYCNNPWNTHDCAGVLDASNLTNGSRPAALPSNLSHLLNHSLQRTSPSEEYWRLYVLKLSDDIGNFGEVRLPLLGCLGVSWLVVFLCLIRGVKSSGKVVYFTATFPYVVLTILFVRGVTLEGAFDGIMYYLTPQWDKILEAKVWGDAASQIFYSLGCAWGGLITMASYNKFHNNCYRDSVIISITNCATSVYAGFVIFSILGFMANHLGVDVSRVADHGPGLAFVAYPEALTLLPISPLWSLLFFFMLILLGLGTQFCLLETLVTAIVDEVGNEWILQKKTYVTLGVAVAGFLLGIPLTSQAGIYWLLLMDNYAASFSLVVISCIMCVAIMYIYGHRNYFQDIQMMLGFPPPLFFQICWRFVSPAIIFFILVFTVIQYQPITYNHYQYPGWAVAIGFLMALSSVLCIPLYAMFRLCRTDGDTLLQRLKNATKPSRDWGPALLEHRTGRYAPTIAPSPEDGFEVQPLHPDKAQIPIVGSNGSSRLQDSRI
Nature of the data set: Radioligand binding assay using recombinant CHO cell membranes expressing human GlyT1. The settings on record: read-out: radioligand binding Kiapp. On the procedure: 2. Radioligand Binding Assays Using Recombinant CHO Cell Membranes Expressing Human GlyT1:
Radioligand binding to human GlyT1c transporter-expressing membranes was determined as described in Mezler et al., Molecular Pharmacology 74:1705-1715, 2008.

For `Cn1cc(S(=O)(=O)NCCOc2ccc3c(c2)C(Cc2ccccc2)NC3)cn1` (stereo not drawn) [Example 7, N-[2-(3-Benzylisoindolin-5-yl)oxyethyl]-1-methyl-1H-pyrazole-4-sulfonamide], in data set [1], the “human mCl” value was less than 10 µL/min/mg. Besides, on human GlyT1c transporter, the Ki was less than 100 nM.

`Cn1cnc(S(=O)(=O)NCCOc2ccc3c(c2)C(Cc2ccccc2)NC3)c1` (stereo not drawn) [Example 5, N-[2-(3-Benzylisoindolin-5-yl)oxyethyl]-1-methyl-1H-imidazole-4-sulfonamide]: the “human mCl” value in data set [1] is less than 1 µL/min/mg. Also, the Ki at human GlyT1c transporter is less than 100 nM.

Turning to `Cn1cnc(S(=O)(=O)NCc2ccc3c(c2)C(Cc2ccccc2)NC3)c1` (stereo not drawn) [Example 4, N-[(3-Benzylisoindolin-5-yl)methyl]-1-methyl-1H-imidazole-4-sulfonamide], the “human mCl” value in data set [1] was less than 1 µL/min/mg. Further, the Ki on human GlyT1c transporter was less than 1000 nM.
